Assays:
[1] = xn = mol fraction of the nth substance listed; settings: 101 kPa, Liquid; for viscosity: Capillary tube (Ostwald / Ubbelohde) method; for mass density: Vibrating tube method
[2] = refractive index (Na D-line) (dimensionless); xn = mol fraction of the nth substance listed; settings: 101 kPa, Liquid, Standard Abbe refractometry

CC1CCC(C)C(C)C1 (stereo not given) [1,2,4-trimethylcyclohexane] + C1C[C@@H]2[C@H]3CC[C@H](C3)[C@@H]2C1
Settings	mass density, [1] [kg/m3]	refractive index, [2]	viscosity, [1] [mPa·s]
293.15 K, x2 = 0	790.8	1.4331	0.886
293.15 K, x2 = 0.1	804.62	1.4381	0.986
293.15 K, x2 = 0.1996	818.49	1.4436	1.101
293.15 K, x2 = 0.3002	832.73	1.449	1.23
293.15 K, x2 = 0.4009	847.13	1.4545	1.381
293.15 K, x2 = 0.5001	861.44	1.4597	1.562
293.15 K, x2 = 0.5992	875.89	1.4651	1.759
293.15 K, x2 = 0.6998	890.7	1.4709	2.008
293.15 K, x2 = 0.7997	905.51	1.476	2.277
293.15 K, x2 = 0.9001	920.61	1.4818	2.609
298.15 K, x2 = 0	786.92	–	0.827
298.15 K, x2 = 0.1	800.71	–	0.917
298.15 K, x2 = 0.1996	814.61	–	1.021
298.15 K, x2 = 0.3002	828.84	–	1.137
298.15 K, x2 = 0.4009	843.21	–	1.273
298.15 K, x2 = 0.5001	857.51	–	1.436
298.15 K, x2 = 0.5992	871.98	–	1.613
298.15 K, x2 = 0.6998	886.77	–	1.837
298.15 K, x2 = 0.7997	901.61	–	2.076
298.15 K, x2 = 0.9001	916.71	–	2.371
303.15 K, x2 = 0	783.03	1.4285	0.774
303.15 K, x2 = 0.1	796.8	1.4339	0.856
303.15 K, x2 = 0.1996	810.7	1.4392	0.95
303.15 K, x2 = 0.3002	824.93	1.4442	1.056
303.15 K, x2 = 0.4009	839.3	1.4499	1.179
303.15 K, x2 = 0.5001	853.59	1.4554	1.326
303.15 K, x2 = 0.5992	868.06	1.4608	1.486
303.15 K, x2 = 0.6998	882.85	1.4661	1.687
303.15 K, x2 = 0.7997	897.7	1.4718	1.901
303.15 K, x2 = 0.9001	912.81	1.4775	2.165
308.15 K, x2 = 0	779.13	–	0.727
308.15 K, x2 = 0.1	792.9	–	0.802
308.15 K, x2 = 0.1996	806.79	–	0.888
308.15 K, x2 = 0.3002	821.01	–	0.984
308.15 K, x2 = 0.4009	835.38	–	1.096
308.15 K, x2 = 0.5001	849.67	–	1.23
308.15 K, x2 = 0.5992	864.13	–	1.374
308.15 K, x2 = 0.6998	878.93	–	1.556
308.15 K, x2 = 0.7997	893.78	–	1.749
308.15 K, x2 = 0.9001	908.89	–	1.985
313.15 K, x2 = 0	775.23	1.424	0.686
313.15 K, x2 = 0.1	788.98	1.429	0.753
313.15 K, x2 = 0.1996	802.87	1.4346	0.832
313.15 K, x2 = 0.3002	817.09	1.44	0.92
313.15 K, x2 = 0.4009	831.45	1.4452	1.022
313.15 K, x2 = 0.5001	845.74	1.4508	1.144
313.15 K, x2 = 0.5992	860.2	1.4561	1.275
313.15 K, x2 = 0.6998	875.01	1.4618	1.44
313.15 K, x2 = 0.7997	889.85	1.4676	1.615
313.15 K, x2 = 0.9001	904.97	1.4731	1.828
318.15 K, x2 = 0	771.32	–	0.648
318.15 K, x2 = 0.1	785.06	–	0.71
318.15 K, x2 = 0.1996	798.94	–	0.782
318.15 K, x2 = 0.3002	813.16	–	0.862
318.15 K, x2 = 0.4009	827.52	–	0.956
318.15 K, x2 = 0.5001	841.8	–	1.068
318.15 K, x2 = 0.5992	856.27	–	1.187
318.15 K, x2 = 0.6998	871.07	–	1.337
318.15 K, x2 = 0.7997	885.92	–	1.496
318.15 K, x2 = 0.9001	901.04	–	1.688

Reference: the NIST ThermoML archive (doi:10.1021/je400529k)
